Source: ChEMBL document CHEMBL4422644, “Synthesis and evaluation of α-aminoacyl amides as antitubercular agents effective on drug resistant tuberculosis” (Eur J Med Chem, 2019)
≈ marks a conversion by molar mass, not a printed value.

How the values were obtained:
[1] = system: Mycobacterium tuberculosis; assay: Antitubercular activity against Mycobacterium tuberculosis H37Rv after 7 days by alamar blue assay; assay type: functional; settings: 168 h
Pseudomonas aeruginosa = assay: Antibacterial activity against Pseudomonas aeruginosa ATCC 27853 after 24 hrs; assay type: functional; settings: ATCC 27853, 24 h
Acinetobacter baumannii = assay: Antibacterial activity against Acinetobacter baumannii ATCC BAA-1605 after 24 hrs; assay type: functional; settings: ATCC BAA-1605, 24 h
Staphylococcus aureus = assay: Antibacterial activity against Staphylococcus aureus ATCC 29213 after 24 hrs; assay type: functional; settings: ATCC 29213, 24 h
Escherichia coli = assay: Antibacterial activity against Escherichia coli ATCC 25922 after 24 hrs; assay type: functional; settings: ATCC 25922, 24 h
Klebsiella pneumoniae = assay: Antibacterial activity against Klebsiella pneumoniae ATCC BAA-1705 after 24 hrs; assay type: functional; settings: ATCC BAA-1705, 24 h
[2] = system: Mycolicibacterium fortuitum; assay: Antibacterial activity against Mycobacterium fortuitum after 7 days by alamar blue assay; assay type: functional; settings: 168 h
Mycobacteroides chelonae = assay: Antibacterial activity against Mycobacterium chelonae after 7 days by alamar blue assay; assay type: functional; settings: 168 h
[3] = system: Mycobacteroides abscessus; assay: Antibacterial activity against Mycobacterium abscessus after 7 days by alamar blue assay; assay type: functional; settings: 168 h
HepG2 = assay: Cytotoxicity against human HepG2 cells after 24 hrs by MTT assay; assay type: functional, cell-based; settings: HepG2, 24 h
DU-145 = assay: Cytotoxicity against human DU145 cells after 24 hrs by MTT assay; assay type: functional, cell-based; settings: DU-145, 24 h
[4] = Cytotoxicity against HEK cells after 24 hrs by MTT assay; assay type: cell-based; settings: Homo sapiens, HEK293, 24 h
A549 = assay: Cytotoxicity against human A549 cells after 24 hrs by MTT assay; assay type: functional, cell-based; settings: A549, 24 h
MCF7 = assay: Cytotoxicity against human MCF7 cells after 24 hrs by MTT assay; assay type: functional, cell-based; settings: MCF7, 24 h
[5] = Cytotoxicity against […] B16 cells after 24 hrs by MTT assay; assay type: functional, cell-based; settings: B16, 24 h
CHO-K1 = assay: Cytotoxicity against CHOK1 cells after 24 hrs by MTT assay; assay type: cell-based; settings: Cricetulus griseus, CHO-K1, 24 h
HeLa = assay: Cytotoxicity against human HeLa cells after 24 hrs by MTT assay; assay type: functional, cell-based
[6] = Selectivity index, ratio of IC50 for CHOK1 cells to MIC for Mycobacterium tuberculosis H37Rv; assay type: toxicity; settings: hamster, read-out: Selectivity Index

SMILES	MIC [1]	MIC (Pseudomonas aeruginosa)	MIC (Acinetobacter baumannii)	MIC (Staphylococcus aureus)	MIC (Escherichia coli)	MIC (Klebsiella pneumoniae)	MIC [2]	MIC (Mycobacteroides chelonae)	MIC [3]	further results
Cc1cc(C)cc(N(C(=O)c2sc(C)nc2C)C(C(=O)NC2CCCCC2)c2ccccc2)c1 (stereo unspecified)	> 100 µM									
Cc1ccc(N(C(=O)c2ccncc2)C(C(=O)NC2CCCCC2)c2ccncc2)cc1 (stereo unspecified)	25 µM (≈ 10.7 µg/mL)									
CCc1ccccc1N(C(=O)c1sc(C)nc1C)C(C(=O)NC1CCCCC1)c1ccccc1 (stereo unspecified)	25 µM (≈ 11.9 µg/mL)	> 50 µM	> 50 µM	> 50 µM	> 50 µM	> 50 µM	> 50 µM	> 50 µM	> 50 µM	
Cc1nc(C)c(C(=O)N(c2ccccc2)C(C(=O)NC2CCCCC2)c2ccccc2)s1 (stereo unspecified)	> 100 µM									
Cc1cccc(N(C(=O)c2ccnc(Cl)c2)C(C(=O)NC2CCCCC2)c2ccccc2)c1C (stereo unspecified)	> 100 µM									
Cc1nc(C)c(C(=O)N(c2ccc(C)c(C)c2)C(C(=O)NC2CCCCC2)c2ccccc2)s1 (stereo unspecified)	> 100 µM									
C[C@H]1COc2c(N3CCN(C)CC3)c(F)cc3c(=O)c(C(=O)O)cn1c23 [LEVOFLOXACIN]		1 µM (≈ 0.361 µg/mL)	8 µM (≈ 2.89 µg/mL)	0.25 µM (≈ 0.0903 µg/mL)	< 0.03 µM	64 µM (≈ 23.1 µg/mL)	< 0.03 µM	0.25 µM (≈ 0.0903 µg/mL)	64 µM (≈ 23.1 µg/mL)	
Cc1nc(C)c(C(=O)N(c2ccccc2)C(C(=O)NC2CCCCC2)c2ccc(C(F)(F)F)cc2)s1 (stereo unspecified)	> 100 µM									
Cc1ccc(N(C(=O)c2sc(C)nc2C)C(C(=O)NC2CCCCC2)c2cccc(C(F)(F)F)c2)cc1 (stereo unspecified)	6.25 µM (≈ 3.31 µg/mL)									IC50 (HepG2): 8.14 µM; IC50 (DU-145): 11.8 µM; IC50 [4]: 59.8 µM; IC50 (A549): 13.9 µM; IC50 (MCF7): 5.7 µM; IC50 [5]: 11.6 µM; IC50 (CHO-K1): 42.7 µM; IC50 (HeLa): 16.4 µM; selectivity ratio [6]: 6.8
Cc1ccc(N(C(=O)c2c(C)noc2C)C(C(=O)NC2CCCCC2)c2cccnc2)cc1 (stereo unspecified)	6.12 µM (≈ 2.73 µg/mL)	> 50 µM	> 50 µM	> 50 µM	> 50 µM	> 50 µM	> 50 µM	> 50 µM	> 50 µM	IC50 (HepG2): 10.3 µM; IC50 (DU-145): 11 µM; IC50 [4]: 82 µM; IC50 (A549): 12.9 µM; IC50 (MCF7): 5.39 µM; IC50 [5]: 40 µM; IC50 (CHO-K1): 112 µM; IC50 (HeLa): 18.2 µM; selectivity ratio [6]: 17.9
Cc1cccc(N(C(=O)c2cnc3ccccc3c2)C(C(=O)NC2CCCCC2)c2ccccc2)c1C (stereo unspecified)	> 100 µM									
Cc1nc(C)c(C(=O)N(c2c(C)cccc2C)C(C(=O)NC2CCCCC2)c2ccccc2)s1 (stereo unspecified)	25 µM (≈ 11.9 µg/mL)	> 50 µM	> 50 µM	> 50 µM	> 50 µM	> 50 µM	> 50 µM	> 50 µM	> 50 µM	
Cc1ccc(N(C(=O)c2sc(C)nc2C)C(C(=O)Nc2cccc3ccccc23)c2ccccc2)cc1 (stereo unspecified)	> 100 µM									
Cc1cc(C)c(N(C(=O)c2sc(C)nc2C)C(C(=O)NC2CCCCC2)c2ccccc2)c(C)c1 (stereo unspecified)	3.25 µM (≈ 1.59 µg/mL)	> 50 µM	> 50 µM	> 50 µM	> 50 µM	> 50 µM	> 50 µM	> 50 µM	> 50 µM	IC50 (HepG2): 6.37 µM; IC50 (DU-145): 11.7 µM; IC50 [4]: 51.2 µM; IC50 (A549): 2.75 µM; IC50 (MCF7): 3.56 µM; IC50 [5]: 11.7 µM; IC50 (CHO-K1): 25.9 µM; IC50 (HeLa): 10.9 µM; selectivity ratio [6]: 8
Cc1ccc(N(C(=O)c2sc(C)nc2C)C(C(=O)NC(C)(C)C)c2ccccc2)c(C)c1 (stereo unspecified)	> 100 µM									
COc1cccc2c1C(=O)c1c(O)c3c(c(O)c1C2=O)C[C@@](O)(C(=O)CO)C[C@@H]3O[C@H]1C[C@H](N)[C@H](O)[C@H](C)O1 [DOXORUBICIN]										IC50 (HepG2): 0.72 µM; IC50 (DU-145): 0.363 µM; IC50 [4]: 0.01 µM; IC50 (A549): 0.55 µM; IC50 (MCF7): 2 µM; IC50 [5]: 0.7 µM; IC50 (HeLa): 0.8 µM
Cc1cccc(N(C(=O)c2c(C)noc2C)C(C(=O)NC2CCCCC2)c2ccncc2)c1C (stereo unspecified)	25 µM (≈ 11.5 µg/mL)	> 50 µM	> 50 µM	> 50 µM	> 50 µM	> 50 µM	> 50 µM	> 50 µM	> 50 µM	
Cc1ccc(N(C(=O)c2ccc[nH]2)C(C(=O)NC2CCCCC2)c2ccccc2)c(C)c1 (stereo unspecified)	6.25 µM (≈ 2.68 µg/mL)	> 50 µM	> 50 µM	> 50 µM	> 50 µM	> 50 µM	> 50 µM	> 50 µM	> 50 µM	IC50 (HepG2): 13.5 µM; IC50 (DU-145): 9.3 µM; IC50 [4]: 33.2 µM; IC50 (A549): 15.5 µM; IC50 (MCF7): 15.5 µM; IC50 [5]: 32.5 µM; IC50 (CHO-K1): 68.2 µM; IC50 (HeLa): 10.9 µM; selectivity ratio [6]: 10.8
Cc1nc(C)c(C(=O)N(c2cccc(C)c2C)C(C(=O)NC(C)(C)C)c2ccccc2)s1 (stereo unspecified)	> 100 µM									
